Holding throughout (format): cell-based
Test [1] deals with human cervical carcinoma line (HeLa). Kind of test: MTT cytotoxicity assay, HeLa. The settings on record: HeLa cells. The method, then: Three cell lines were used to determine the cytotoxicity of the complexes, a human cervical carcinoma line (HeLa), a human radical growth phase melanoma cell line (WM35), and a normal fibroblastic epithelial cell line (HFL1) using the MTT method. The cells were exposed to C1 and C2 complexes in different concentrations (50, 25, 12.5, 2, and 0.2 µM) at 24, 48, and 72 h. As positive contro, cisplatin was used.
To determine the cytotoxicity of the copper complexes, three cell lines were used: a human cervical carcinoma line (HeLa), a human radical growth phase melanoma cell line (WM35), and a normal fibroblastic epithelial cell line (HFL1). The cell lines were obtained from ATCC (American Type Cell Collection, Manassas, VA 20110-2209, USA) and were maintained in DMEM (Sigma-Aldrich, Saint Louis, Missouri, USA) supplemented with 10% fetal bovine serum (Hyclone), 1 mM glutamine (Sigma-Aldrich), and 1% antibiotic antimycotic 100× (Sigma-Aldrich). The cells were cultured at 37 °C in an atmosphere of 5% CO2 and 95% relative humidity.
The cytotoxicity assays were performed using the MTT assay (3-(4,5-dimethylthiazol-2-yl)-2,5-diphenyl tetrazolium bromide-Sigma Aldrich). Cells were plated at a density of 1 × 10^5 cells/well in 96-well plates for 24 h in normal propagation media. The cultures were then exposed to C1 and C2 complexes in different concentrations (50, 25, 12.5, 2, and 0.2 µM). The complexes were first solubilized in DMSO (Sigma) and then serial dilutions in media were performed until the final concentration of DMSO was less than 1%. As a positive control, cisplatin (Ebewe Pharma Ges.m.b.H. Nfg. KG, Austria) was used, in the same concentrations as the complexes. As a negative control, cell lines cultivated in normal expansion medium with the same amount of DMSO added were used. The cellular viability was determined using the MTT assay at 24, 48, and 72 h, respectively. Formazan particles were solubilized with DMSO and absorbances were determined at 550 nm using a microplate reader (Bio-Rad, Hercules, CA, USA). The cytotoxic activity, expressed as IC50 values representing the complex solution required to inhibit 50% of the cell proliferation, were calculated from the calibration curve by nonlinear regression. Each experiment was carried out in triplicate.
For orientation: Tetrazolium dyes change colour on reduction, which living cells bring about.

In test [2] the test system is Bacillus cerreus ATCC 14579. In words: Disk diffusion method, B. cerreus. As to conditions: complexes 5 µL of 1 mg/mL; 25 µg Amoxicillin, 5 µg Norfloxacin; 24 h, 37 °C. An excerpt: (§1) The disk diffusion method was used to determine the antibacterial activity of the C1 and C2 copper complexes on four reference microbial strains, two Gram-positive (Staphylococcus aureus and Bacillus cerreus) and two Gram-negative (Escherichia coli and Pseudomonas aeruginosa) strains. The disk diffusion method was used to determine the antibacterial activity of the C1 and C2 copper complexes. The method was adapted for the purposes of the current study, according to the standards developed by the Clinical and Laboratory Standards Institute. Four reference microbial strains, two Gram-positive (Staphylococcus aureus ATCC […] and Bacillus cerreus ATCC 14579) and two Gram-negative (Escherichia coli ATCC 10536 and Pseudomonas aeruginosa ATCC 27853) strains, were used for in vitro susceptibility testing. These reference microbial strains were obtained from the American Type Culture Collection (ATCC, Manassas, VA, USA). As positive controls, Amoxicillin (Oxoid Ltd., Basingstoke, UK) and Norfloxacin (Sigma-Aldrich) were used. For each of the four species, an initial suspension of bacterial cultures was inoculated on nutrient agar plates (Merck KGaA, Darmstadt, Germany), incubated for 24 h at 37 ± 2 °C and resuspended in a physiological saline buffer to a […] concentration (on a 0.5 McFarland scale), and further inoculated on Muëller Hinton agar plates (Merck KGaA, Darmstadt, Germany). […] After inoculation, the medium surface was dried and 8 wells were radially drilled 1.5 cm from the outer edge, 3 cm apart. From aliquot samples of 1 mg/mL of each copper complex dissolved in DMSO and incorporated in sterile liquid medium, 5 μL was placed in each of the 8 wells and left for 30 min to diffuse into the agar plates. The plates were then incubated for 24 h at 37 ± 2 °C. Then, 25 μg Amoxicillin and 5 μg Norfloxacin served as a positive controls, while DMSO 0.75% was used as a negative control. Readings were conducted by measuring the diameter of the inhibition zone (Halo Zone Test, in mm). The germ sensitivity of the copper complexes was estimated by comparing the diameter of the inhibition area to that generated by the regular antibiotics with known inhibition values. […] All tests were triplicated, and the measured diameters of the inhibition zone were expressed (in mm) as mean ± standard deviation.
(In general: In agar diffusion tests the substance spreads into inoculated agar from a disc or well.)

Test [3] has as its system Pseudomonas aeruginosa ATCC 27853. Kind of test: Disk diffusion method, P. aeruginosa. The settings on record: complexes 5 µL of 1 mg/mL; 5 µg Norfloxacin; 24 h, 37 °C.
Text: as §1

Test [4] has as its system Staphylococcus aureus ATCC 6538P. Kind of test: MIC, serial broth microdilution, S. aureus. As to conditions: 24 h, 37 °C. The protocol:
The values of MIC, defined as the lowest concentration of antimicrobial complex that prevents visible growth of germs, are presented in Table S4 in the Supplementary Material. To quantify the copper complexes effectiveness as antibacterial agents, their minimum inhibitory concentrations (MICs) were determined using the serial broth microdilution method described by Quinn et al. and Markey et al.. The method was adapted for the purposes of the current study, according to the standards developed by the Clinical and Laboratory Standards Institute. The tests were performed on the same Gram-positive and Gram-negative reference microbial strains. Ten successive dilutions of the copper complexes solutions (1/2 to 1/1024) in nutrient broth (Merck KGaA, Darmstadt, Germany) were performed and then were placed in sterile microplates (one each for every copper complex). The microplates were incubated at 37 ± 2 °C for 24 h. Comparisons of the amount of bacterial growth in each well containing copper complexes solutions with the amount of growth in the growth control wells were performed and the maximal dilution for which the tested copper complexes inhibited bacterial growth was determined.
(In broth dilution the organism is exposed to a series of concentrations in liquid medium.)

Take “[Cu(N-(5-(4-Methylphenyl)-[1,3,4]-Thiadiazole-2-yl) Naphtalenesulfonamidate)2(H2O)3] [C1]”: the figures for the IC50 in test [1] (24 h), in test [1] (48 h) and in test [1] (72 h) were 33.18 ± 0.19 µM, 16.36 ± 0.12 µM and 6.47 ± 0.06 µM, respectively. Besides, the results for the “Halo Zone Test (diameter of the inhibition zone)” value in test [2] and in test [3] were 11 ± 0.25 mm and 15 ± 0.32 mm, respectively. For the same substance, in test [4], the MIC (commonly the lowest concentration found to suppress growth) is 0.289 µg/mL.

For the substance “[Cu(N-(5-Ethyl--[1,3,4]-Thiadiazole-2-yl) Naphtalenesulfonamidate)2(py)2(H2O)] [C2]”, the values for the IC50 in test [1] (24 h), in test [1] (48 h) and in test [1] (72 h) were 8.79 ± 0.21 µM, 4.06 ± 0.05 µM and 1.45 ± 0.09 µM, respectively. Besides, the “Halo Zone Test (diameter of the inhibition zone)” value in test [2] was 12 ± 0.34 mm; in test [3] it was 19 ± 0.19 mm. This substance returned an MIC in test [4] of 0.202 µg/mL.
